In brackets after ≈: the same amount, converted by molar mass. Where a SMILES comes first, the peptide text is derived from it. Bridges are numbered along the chain shown (N, C = ends). [ ]: non-standard residue; d: D form. The star is where a group is joined. Quinoxaline2carbonyl = O=C(c1cnc2ccccc2n1)*; X24 = O=C(c1cccc(C(F)(F)F)n1)*; X49 = O=C(c1cnc(C(F)(F)F)nc1)*; X22 = Cn1c(C(=O)*)cc2ccccc21; X42 = O=C(c1nc2ccccc2[nH]1)*; X5 = Cc1ccc2nc(C(=O)*)cn2c1; X54 = O=C(c1cccc(Cl)n1)*; Dab = NCC[C@H](N)C(=O)O; Abu = CC[C@H](N)C(=O)O; Dap = NC[C@H](N)C(=O)O
How the values were obtained:
Assay type in all cases: cell-based
[1] = tested on: Acinetobacter baumannii FADDI-AB030; test: microbe, parasite or virus in culture; settings: FADDI-AB030
Summary of the method: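 Broth microdilution MIC in cation-adjusted Mueller-Hinton broth per CLSI M100-S24; lipopeptides tested as TFA salts. FADDI-AB030 is a multidrug-resistant clinical isolate. Polymyxin B sulphate served as control.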

[2] = tested on: Pseudomonas aeruginosa ATCC 27853; settings: ATCC 27853
Summary of the method: (§1)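 Values are MICs of the lipopeptide trifluoroacetic acid salts. Dilution series were set up in CAMHB as CLSI M100-S24 specifies.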

[3] = tested on: Pseudomonas aeruginosa FADDI-PA038; settings: FADDI-PA038
Summary of the method: as §1

[4] = tested on: Pseudomonas aeruginosa FADDI-PA01; settings: FADDI-
Summary of the method: as §1

[5] = tested on: Enterobacter cloacae FADDI-EC006; settings: FADDI-EC006
Summary of the method: as §1

[6] = tested on: Enterobacter cloacae FADDI-EC003; settings: FADDI-EC003
Summary of the method: as §1

[7] = tested on: Klebsiella pneumoniae Kp BM1; settings: Kp BM1
Summary of the method: (§2)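 The read-out is the MIC, obtained by CLSI broth microdilution (M100-S24) in cation-adjusted Mueller-Hinton broth. The compounds were lipopeptide TFA salts, and polymyxin B sulphate served as control.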

[8] = tested on: Klebsiella pneumoniae FADDI-KP032; settings: FADDI-KP032
Summary of the method: as §1

[9] = tested on: Enterobacter cloacae FADDI-EC001; settings: FADDI-EC001
Summary of the method: as §2

[10] = tested on: Acinetobacter baumannii ATCC 17978; settings: ATCC 17978
Summary of the method: as §1

[11] = tested on: Acinetobacter baumannii FADDI-AB034; settings: FADDI-AB034
Summary of the method: as §1

[12] = tested on: Klebsiella pneumoniae FADDI-KP022; settings: FADDI-KP022
Summary of the method: as §1

[13] = tested on: Pseudomonas aeruginosa FADDI-PA022; settings: FADDI-PA022
Summary of the method: as §1

Structure (SMILES) | Minimum inhibitory concentration [1] [µg/mL] | Minimum inhibitory concentration [2] [µg/mL] | Minimum inhibitory concentration [3] [µg/mL] | Minimum inhibitory concentration [4] [µg/mL] | Minimum inhibitory concentration [5] [µg/mL] | Minimum inhibitory concentration [6] [µg/mL] | Minimum inhibitory concentration [7] [µg/mL] | Minimum inhibitory concentration [8] [µg/mL] | Minimum inhibitory concentration [9] [µg/mL] | Minimum inhibitory concentration [10] [µg/mL] | Minimum inhibitory concentration [11] [µg/mL] | Minimum inhibitory concentration [12] [µg/mL] | Minimum inhibitory concentration [13] [µg/mL]
CC[C@@H]1NC(=O)[C@@H](CC(C)C)NC(=O)[C@H](CCN)NC(=O)[C@@H](NC(=O)[C@H](CN)NC(=O)[C@@H](NC(=O)[C@H](CCN)NC(=O)c2cccc(Cl)n2)[C@@H](C)O)CCNC(=O)[C@H]([C@@H](C)O)NC(=O)[C@H](CCN)NC(=O)[C@H](CCN)NC1=O [Compound 43] (X54-[Dab]T[Dap][Dab][Dab][dL][Abu][Dab][Dab]T; lactam 4-C) | 4 (≈ 3.55 µM) | 0.25 (≈ 0.222 µM) | 1 (≈ 0.888 µM) | 0.25 (≈ 0.222 µM) | 0.5 (≈ 0.444 µM) | 0.25 (≈ 0.222 µM) | 0.25 (≈ 0.222 µM) | 0.25 (≈ 0.222 µM) | <0.125 | 4 (≈ 3.55 µM) | 4 (≈ 3.55 µM) | <0.125 | 0.25 (≈ 0.222 µM)
CC[C@@H]1NC(=O)[C@@H](CC(C)C)NC(=O)[C@H](CCN)NC(=O)[C@@H](NC(=O)[C@H](CN)NC(=O)[C@@H](NC(=O)[C@H](CCN)NC(=O)c2cccc(C(F)(F)F)n2)[C@@H](C)O)CCNC(=O)[C@H]([C@@H](C)O)NC(=O)[C@H](CCN)NC(=O)[C@H](CCN)NC1=O [Compound 44] (X24-[Dab]T[Dap][Dab][Dab][dL][Abu][Dab][Dab]T; lactam 4-C) | 1 (≈ 0.862 µM) | <0.125 | 0.5 (≈ 0.431 µM) | <0.125 | 0.5 (≈ 0.431 µM) | <0.125 | <0.125 | <0.125 | <0.125 | 2 (≈ 1.72 µM) | 2 (≈ 1.72 µM) | <0.125 | 0.25 (≈ 0.215 µM)
CC[C@@H]1NC(=O)[C@@H](CC(C)C)NC(=O)[C@H](CCN)NC(=O)[C@@H](NC(=O)[C@H](CN)NC(=O)[C@@H](NC(=O)[C@H](CCN)NC(=O)c2cnc(C(F)(F)F)nc2)[C@@H](C)O)CCNC(=O)[C@H]([C@@H](C)O)NC(=O)[C@H](CCN)NC(=O)[C@H](CCN)NC1=O [Compound 45] (X49-[Dab]T[Dap][Dab][Dab][dL][Abu][Dab][Dab]T; lactam 4-C) | 0.5 (≈ 0.431 µM) | 0.25 (≈ 0.215 µM) | 1 (≈ 0.861 µM) | <0.125 | 2 (≈ 1.72 µM) | 2 (≈ 1.72 µM) | 0.5 (≈ 0.431 µM) | 0.5 (≈ 0.431 µM) | <0.125 | 2 (≈ 1.72 µM) | 0.5 (≈ 0.431 µM) | <0.125 | 0.25 (≈ 0.215 µM)
CC[C@@H]1NC(=O)[C@@H](CC(C)C)NC(=O)[C@H](CCN)NC(=O)[C@@H](NC(=O)[C@H](CN)NC(=O)[C@@H](NC(=O)[C@H](CCN)NC(=O)c2cnc3ccccc3n2)[C@@H](C)O)CCNC(=O)[C@H]([C@@H](C)O)NC(=O)[C@H](CCN)NC(=O)[C@H](CCN)NC1=O [Compound 46] (Quinoxaline2carbonyl-[Dab]T[Dap][Dab][Dab][dL][Abu][Dab][Dab]T; lactam 4-C) | 2 (≈ 1.75 µM) | 0.5 (≈ 0.437 µM) | 0.5 (≈ 0.437 µM) | 0.25 (≈ 0.219 µM) | 2 (≈ 1.75 µM) | 0.25 (≈ 0.219 µM) | 0.25 (≈ 0.219 µM) | <0.125 | 0.25 (≈ 0.219 µM) | 4 (≈ 3.5 µM) | 4 (≈ 3.5 µM) | <0.125 | 0.5 (≈ 0.437 µM)
CC[C@@H]1NC(=O)[C@@H](CC(C)C)NC(=O)[C@H](CCN)NC(=O)[C@@H](NC(=O)[C@H](CN)NC(=O)[C@@H](NC(=O)[C@H](CCN)NC(=O)c2nc3ccccc3[nH]2)[C@@H](C)O)CCNC(=O)[C@H]([C@@H](C)O)NC(=O)[C@H](CCN)NC(=O)[C@H](CCN)NC1=O [Compound 47] (X42-[Dab]T[Dap][Dab][Dab][dL][Abu][Dab][Dab]T; lactam 4-C) | 0.25 (≈ 0.221 µM) | 0.5 (≈ 0.442 µM) | 0.5 (≈ 0.442 µM) | <0.125 | 0.5 (≈ 0.442 µM) | <0.125 | 0.25 (≈ 0.221 µM) | 0.25 (≈ 0.221 µM) | <0.125 | 1 (≈ 0.884 µM) | 1 (≈ 0.884 µM) | <0.125 | 0.25 (≈ 0.221 µM)
CC[C@@H]1NC(=O)[C@@H](CC(C)C)NC(=O)[C@H](CCN)NC(=O)[C@@H](NC(=O)[C@H](CN)NC(=O)[C@@H](NC(=O)[C@H](CCN)NC(=O)c2cc3ccccc3n2C)[C@@H](C)O)CCNC(=O)[C@H]([C@@H](C)O)NC(=O)[C@H](CCN)NC(=O)[C@H](CCN)NC1=O [Compound 48] (X22-[Dab]T[Dap][Dab][Dab][dL][Abu][Dab][Dab]T; lactam 4-C) | <0.125 | 0.25 (≈ 0.218 µM) | <0.125 | <0.125 | 0.25 (≈ 0.218 µM) | 0.25 (≈ 0.218 µM) | <0.125 | <0.125 | <0.125 | <0.125 | 0.25 (≈ 0.218 µM) | <0.125 | 0.25 (≈ 0.218 µM)
CC[C@@H]1NC(=O)[C@@H](CC(C)C)NC(=O)[C@H](CCN)NC(=O)[C@@H](NC(=O)[C@H](CN)NC(=O)[C@@H](NC(=O)[C@H](CCN)NC(=O)c2cn3cc(C)ccc3n2)[C@@H](C)O)CCNC(=O)[C@H]([C@@H](C)O)NC(=O)[C@H](CCN)NC(=O)[C@H](CCN)NC1=O [Compound 49] (X5-[Dab]T[Dap][Dab][Dab][dL][Abu][Dab][Dab]T; lactam 4-C) | 1 (≈ 0.873 µM) | 0.25 (≈ 0.218 µM) | 0.5 (≈ 0.437 µM) | 0.25 (≈ 0.218 µM) | 1 (≈ 0.873 µM) | <0.125 | 0.25 (≈ 0.218 µM) | <0.125 | <0.125 | 2 (≈ 1.75 µM) | 4 (≈ 3.49 µM) | <0.125 | 0.5 (≈ 0.437 µM)

Source: patent US11225505B2, “Antimicrobial polymyxin derivative compounds” (MONASH UNIVERSITY, priority 2015, dated 2022)
